Laboratory results from paper doi:10.1101/2023.12.14.571638v1, “Structural basis of a regulatory switch in mammalian complex I” (biorxiv, 2023).

Assays:
[1] = biological target: T1, complex I (CI), NADH-binding site (Bos taurus, UniProt P25708); assay: NADH:APAD+ oxidoreduction, absorbance; type: biochemical; details: 500 µM APAD+, 100 µM NADH, 500 nM piericidin A; pH 7.5, 32 °C
T1 construct: gene NDUFV1; native 45-subunit complex from heart mitochondria, purified in LMNG, in proteoliposomes; with NADH dehydrogenase [ubiquinone] flavoprotein 2, mitochondrial; NADH-ubiquinone oxidoreductase 75 kDa subunit, mitochondrial; NADH dehydrogenase [ubiquinone] iron-sulfur protein 2, mitochondrial; NADH dehydrogenase [ubiquinone] iron-sulfur protein 7, mitochondrial

[2] = biological target: T1, complex I (CI), NADH-binding site; assay: NADH oxidation by CI-PLs with AOX, absorbance; type: biochemical; details: 200 µM NADH, ubiquinone-10, AOX; pH 7.5, 32 °C
[3] = biological target: T2, complex I (CI), ubiquinone-10-binding site (Bos taurus, UniProt P03887+P17694+P42026); assay: cryoEM structure in proteoliposomes; details: CI-out-closed state, 2.5 Å; native substrate, deep-bound
T2 construct: gene NDUFS2; native 45-subunit complex from heart mitochondria, purified in LMNG, reconstituted in proteoliposomes (CI-PLs); natural variant NDUFS2-129 modelled as Arg; with NADH-ubiquinone oxidoreductase chain 3; NADH-ubiquinone oxidoreductase chain 6; NADH dehydrogenase [ubiquinone]; 1 alpha subcomplex subunit 9, mitochondrial
T2 sequence (P17694 34-463): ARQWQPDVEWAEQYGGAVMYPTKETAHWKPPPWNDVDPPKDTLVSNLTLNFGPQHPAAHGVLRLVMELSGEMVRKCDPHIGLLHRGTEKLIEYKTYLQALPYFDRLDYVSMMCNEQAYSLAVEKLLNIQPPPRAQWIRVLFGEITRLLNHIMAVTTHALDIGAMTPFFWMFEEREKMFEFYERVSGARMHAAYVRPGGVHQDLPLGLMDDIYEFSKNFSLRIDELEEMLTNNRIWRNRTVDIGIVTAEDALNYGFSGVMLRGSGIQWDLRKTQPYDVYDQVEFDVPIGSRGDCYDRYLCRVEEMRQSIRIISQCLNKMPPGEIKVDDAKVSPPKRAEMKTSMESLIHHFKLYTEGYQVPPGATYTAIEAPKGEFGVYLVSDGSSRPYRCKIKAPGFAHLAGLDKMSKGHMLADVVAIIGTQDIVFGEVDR
T2 sequence (P03887 whole entry): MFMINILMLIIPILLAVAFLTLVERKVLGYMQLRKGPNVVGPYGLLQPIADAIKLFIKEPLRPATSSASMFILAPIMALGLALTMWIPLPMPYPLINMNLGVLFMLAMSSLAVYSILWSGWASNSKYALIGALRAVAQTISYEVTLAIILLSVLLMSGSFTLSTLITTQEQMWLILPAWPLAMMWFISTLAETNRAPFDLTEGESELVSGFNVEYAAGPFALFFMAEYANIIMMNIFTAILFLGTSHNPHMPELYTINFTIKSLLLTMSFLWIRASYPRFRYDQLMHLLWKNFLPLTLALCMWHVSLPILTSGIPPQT
T2 sequence (P42026 38-216): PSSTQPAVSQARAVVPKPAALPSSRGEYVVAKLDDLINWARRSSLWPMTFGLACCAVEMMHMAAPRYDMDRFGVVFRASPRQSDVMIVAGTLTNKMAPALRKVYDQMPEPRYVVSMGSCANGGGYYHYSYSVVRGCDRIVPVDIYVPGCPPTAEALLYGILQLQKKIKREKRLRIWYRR

T1 sequence (P25708 21-464, one chain of several): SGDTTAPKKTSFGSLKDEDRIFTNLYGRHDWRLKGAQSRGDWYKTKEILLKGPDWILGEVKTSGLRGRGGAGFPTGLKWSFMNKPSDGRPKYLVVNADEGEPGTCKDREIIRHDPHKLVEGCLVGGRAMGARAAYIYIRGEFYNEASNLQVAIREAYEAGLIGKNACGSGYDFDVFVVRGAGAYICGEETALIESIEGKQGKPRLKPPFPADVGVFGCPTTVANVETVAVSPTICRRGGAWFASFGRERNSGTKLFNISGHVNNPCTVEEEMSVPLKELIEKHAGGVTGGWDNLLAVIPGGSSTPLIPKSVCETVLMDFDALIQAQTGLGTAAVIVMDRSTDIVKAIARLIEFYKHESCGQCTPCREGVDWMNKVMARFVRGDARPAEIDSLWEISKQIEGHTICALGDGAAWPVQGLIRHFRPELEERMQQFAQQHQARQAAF

With CC(=O)c1ccc[n+]([C@@H]2O[C@H](COP(=O)([O-])OP(=O)(O)OC[C@H]3O[C@@H](n4cnc5c(N)ncnc54)[C@H](O)[C@@H]3O)[C@@H](O)[C@H]2O)c1 [APAD^+] the “NADH:APAD+ oxidoreduction, absorbance” value [1] was “Complex I concentration in CI-PLs was determined using the NADH:APAD^+ oxidoreduction reaction”.
For NC(=O)C1=CN([C@@H]2O[C@H](COP(=O)(O)OP(=O)(O)OC[C@H]3O[C@@H](n4cnc5c(N)ncnc54)[C@H](O)[C@@H]3O)[C@@H](O)[C@H]2O)C=CC1 [NADH], the “NADH oxidation by CI-PLs with AOX, absorbance” value [2] was “NADH:O2 oxidoreduction rates were measured as the rates of NADH oxidation”.
COC1=C(OC)C(=O)C(C/C=C(\C)CC/C=C(\C)CC/C=C(\C)CC/C=C(\C)CC/C=C(\C)CC/C=C(\C)CC/C=C(\C)CC/C=C(\C)CC/C=C(\C)CCC=C(C)C)=C(C)C1=O [ubiquinone-10] was tested, and the “cryoEM structure in proteoliposomes” value [3] was “The CI-in/out-closed structures exhibit well-ordered density for ubiquinone-10, inserted fully into its active site”.
